According to patent publication US8653048B2 (Sanlugen Pharmatech Ltd., priority 2009, dated 2014):

Columns and labels:
[1] = system: A549: a human lung cancer cell line; experiment: MTT analytical method, A549 cells; format: cell-based; conditions: 72 h
Description: (§1) MTT analytical method was used to test the prodrugs for various tumor cells.
(§2) • 1) Cell lines: NCI-H460, A549, LOVO, HT-29, MDA-MB-231, SGC7901, HepG2 or BEL-7402 cell lines. Culture: adherent culturing in D-MEM (Hyclone, Inc.) containing 10% fetal calf serum. The initial cell concentration was about 3×10^5 /mL. The cell was passaged by 1:3 dilution in every 2-3 days. On the day before the test, the cell was passaged by 1:2 dilution, the cell concentration for the test was 5-10×10^5 /mL. • 2) Dissolution and dilution of compounds: according to the weight and molecular weight of the drugs provided, 100-200 μL of DMSO was added. Then normal saline was added to make the final diluted concentration of the drugs be 5 mM (Note that the final concentration of DMSO should not be more than 10%). • 3) D-MEM or RPMI 1640 cell culture medium, Gibco, Inc. • 4) Fetal calf serum Hyclone, Inc. • 5) Cell dissociation buffer, 0.25% Trypsin+0.02% EDTA. • 6) MTT solution, MTT Powder (Sigma) were dissolved in PBS buffer solution to make a solution of 5 mg/mL. The solution was filtered by a 0.22 μm micropore membrane and stored at −20° C. • 7) PBS buffer solution. • 8) 10% acidified SDS, 0.01N HCl. • 9) Centrifuge tubes, haustorial tubes etc. (BD, Inc.); 96-well plates (Costatr, Inc.) Procedures: • 1) Cell inoculation: Cells grown for 24 hours after passage, which cells were in good growth state, were used. The cells were harvested by the routine method. The cell concentration was adjust with a fresh culture solution to 2×10^5/mL (for adherent cells)-3×10^5/mL (for suspension cells). The adherent cells were inoculated at 100 μL/well and then cultivated in an incubator with 5% CO2 at 37° C. for 24 h. Thereafter the used culture solution was removed and 95 μL/well of fresh culture solution was added. The suspension cells were inoculated at 95 μL/well directly. • 2) Drugs treatment: 9 concentration grades were designed for every drug, and every concentration had 3 wells. The control group had 5 wells. The control group was tested simultaneously in each test. The final concentrations of a drug added were […], and 5 μL normal saline was added to the control group. • 3) Cell culture and detection: the cells were cultured in an incubator with 5% CO2 at 37° C. for 72 h after the drug was added, then 10 μL MTT was added to each well and the culture was continued for 4 h. 100 μL of 10% SDS (containing 0.01N HCl) was added to each well. After 24 h, the absorbance (A) of each well was determined by Bio-rad 680 ELISA with the detection wavelength of 570 nm and the reference wavelength of 630 nm. Calculation:
(§3) First, the absorbance (A) of each well was averaged (removing any data with big difference). […] A0 was the mean absorbance of the control wells. The effect curve of the drug concentration was drawn using EXCEL software and the drug concentration for 50% cell survival was calculated according to an appropriate computing methods.

[2] = system: HT29: a human colon cancer cell line; experiment: MTT analytical method, HT29 cells; format: cell-based; conditions: HT-29, 72 h
Description: as §1, §2, §3

[3] = system: Bel7402: a human liver cancer cell line; experiment: MTT analytical method, Bel7402 cells; format: cell-based; conditions: Bel-7402, 72 h
Description: as §1, §2, §3

[4] = system: H460 cells, a human lung cancer cell line, inoculated in nude mice; experiment: H460 tumor in nude mice, oral administration of SL-01; format: in vivo, Balb/c female nude mice; conditions: for Mean Volume of Tumor: Ftorafur 120 mg/kg gastric gavage
Experimental: 1. […] Suspension formulation was prepared using 2.5% starch for intragastric administration. […] In the test, it was dissolved in normal saline and filtered with microfiltration membrane and administrated by tail vein injection. Positive control drug: Ftorafur (FT-207) produced by Qilu Pharmaceutical Co. Ltd., oral formulation.
2. Experimental animals: 50 Balb/c female nude mice at 4-5 weeks old, purchased from Peking University Health Science Center.
1. Culture of tumor cells: H460 cells were cultured in an incubator with 5% CO2 at 37° C. using RPMI-1640 nutrient solution containing 10% fetal calf serum. The cells were passaged through routine method.
2.2 Method of inoculating tumor cells in nude mice: cells were collected when they grew to about […] in culture flasks. Cells were washed twice with PBS before they were digested, then 1.5 mL of digestion solution juices was added into every bottle. They were observed under a microscope and the digestion was terminated after the cells were shed. Cell suspension was collected into 50 mL of centrifugal tube and centrifuged and washed twice with PBS. It was counted and suspended with 10 mL of normal saline to get the tumor cell suspension of inoculated nude mice. The tumor cells (1×10^7/0.2 mL) were inoculated in the left front armpits of mice. The tumor growth was observed after the inoculation.
4. Evaluation protocols for drug treating effect: these mice were weighed before drug administration and every week thereafter. The long tumor pathline (a) and the short tumor pathline (b) were measured at the same time. The formula for calculating the tumor volume is V=(a×b^2)/2. Mice were euthanized after drug administration for 3 weeks. The tumor was taken out and weighed. […] W was the tumor weight of the treatment group.

SMILES	IC50 [1]	IC50 [2]	IC50 [3]	further results
CCCCCCCCCCCCOC(=O)c1ccncc1C(=O)Nc1ccn([C@@H]2O[C@H](CO)[C@@H](O)C2(F)F)c(=O)n1 [Compound 24, Dodecyl-3-((1-((2R,4R,5R)-3,3-difluoro-4-hydroxy-5-(hydroxymethyl)-tetrahydrofuran-2-yl)-2-oxo-1,2-dihydropyrimidin-4-yl)carbamoyl)isonicotinate]	8 µM	8 µM	16 µM	–
CCCCCCCCCCCOC(=O)c1ccccc1C(=O)Nc1ccn([C@@H]2O[C@H](CO)[C@@H](O)C2(F)F)c(=O)n1 [Compound 2, Undecyl-2-((1-((2R,4R,5R)-3,3-difluoro-4-hydroxy-5-(hydroxymethyl)-tetrahydrofuran-2-yl)-2-oxo-1,2-dihydropyrimidin-4-yl)carbamoyl)benzoate]	–	> 200 µM	162 µM	–
CCCCCCCCCCCOC(=O)c1cccc(C(=O)Nc2ccn([C@@H]3O[C@H](CO)[C@@H](O)C3(F)F)c(=O)n2)n1 [Compound 19, Undecyl-6-((1-((2R,4R,5R)-3,3-difluoro-4-hydroxy-5-(hydroxymethyl)-tetrahydrofuran-2-yl)-2-oxo-1,2-dihydropyrimidin-4-yl)carbamoyl)picolinate]	–	25 µM	46 µM	–
CCCCCCCCCCCCOC(=O)c1ncccc1C(=O)Nc1ccn([C@@H]2O[C@H](CO)[C@@H](O)C2(F)F)c(=O)n1 [Compound 12, Dodecyl-3-((1-((2R,4R,5R)-3,3-difluoro-4-hydroxy-5-(hydroxymethyl)-tetrahydrofuran-2-yl)-2-oxo-1,2-dihydropyrimidin-4-yl)carbamoyl)picolinate]	–	20 µM	60 µM	–
CCCCCCCCCCCOC(=O)C1CCCCC1C(=O)Nc1ccn([C@@H]2O[C@H](CO)[C@@H](O)C2(F)F)c(=O)n1 (stereo partly drawn) [Compound 36, Undecyl-2-((1-((2R,4R,5R)-3,3-difluoro-4-hydroxy-5-(hydroxymethyl)-tetrahydrofuran-2-yl)-2-oxo-1,2-dihydropyrimidin-4-yl)carbamoyl)cyclohexanecarboxylate]	–	> 200 µM	> 200 µM	–
CCCCCCCCCCCOC(=O)c1ccc(C(=O)Nc2ccn([C@@H]3O[C@H](CO)[C@@H](O)C3(F)F)c(=O)n2)cn1 [Compound 11, Undecyl-5-((1-((2R,4R,5R)-3,3-difluoro-4-hydroxy-5-(hydroxymethyl)-tetrahydrofuran-2-yl)-2-oxo-1,2-dihydropyrimidin-4-yl)carbamoyl)picolinate]	3 µM	< 2 µM	4 µM	–
CCCCCCCCCCCCOC(=O)c1ccccc1C(=O)Nc1ccn([C@@H]2O[C@H](CO)[C@@H](O)C2(F)F)c(=O)n1 [Compound 1, Dodecyl-2-((1-((2R,4R,5R)-3,3-difluoro-4-hydroxy-5-(hydroxymethyl)-tetrahydrofuran-2-yl)-2-oxo-1,2-dihydropyrimidin-4-yl)carbamoyl)benzoate]	23 µM	13 µM	20 µM	–
CCCCCCCCCCCOC(=O)c1cccc(C(=O)Nc2ccn([C@@H]3O[C@H](CO)[C@@H](O)C3(F)F)c(=O)n2)c1 [Compound 7, Undecyl-3-((1-((2R,4R,5R)-3,3-difluoro-4-hydroxy-5-(hydroxymethyl)-tetrahydrofuran-2-yl)-2-oxo-1,2-dihydropyrimidin-4-yl)carbamoyl)benzoate]	–	80 µM	125 µM	–
CCCCCCCCCCOC(=O)c1cccc(C(=O)Nc2ccn([C@@H]3O[C@H](CO)[C@@H](O)C3(F)F)c(=O)n2)c1 [Compound 6, Decyl-3-((1-((2R,4R,5R)-3,3-difluoro-4-hydroxy-5-(hydroxymethyl)-tetrahydrofuran-2-yl)-2-oxo-1,2-dihydropyrimidin-4-yl)carbamoyl)benzoate]	–	13 µM	30 µM	–
CCCCCCCCCCCCOC(=O)c1ccc(C(=O)Nc2ccn([C@@H]3O[C@H](CO)[C@@H](O)C3(F)F)c(=O)n2)s1 [Compound 20, Dodecyl-5-((1-((2R,4R,5R)-3,3-difluoro-4-hydroxy-5-(hydroxymethyl)-tetrahydrofuran-2-yl)-2-oxo-1,2-dihydropyrimidin-4-yl)carbamoyl)thiophene-2-carboxylate]	13 µM	6 µM	14 µM	–
CCCCCCCCCCCOC(=O)c1ccnc(C(=O)Nc2ccn([C@@H]3O[C@H](CO)[C@@H](O)C3(F)F)c(=O)n2)c1 [Compound 28, Undecyl-2-((1-((2R,4R,5R)-3,3-difluoro-4-hydroxy-5-(hydroxymethyl)-tetrahydrofuran-2-yl)-2-oxo-1,2-dihydropyrimidin-4-yl)carbamoyl)isonicotinate]	8 µM	2 µM	8 µM	–
CCCCCCCCCCCOC(=O)c1ccc(C(=O)Nc2ccn([C@@H]3O[C@H](CO)[C@@H](O)C3(F)F)c(=O)n2)s1 [Compound 21, Undecyl-5-((1-((2R,4R,5R)-3,3-difluoro-4-hydroxy-5-(hydroxymethyl)-tetrahydrofuran-2-yl)-2-oxo-1,2-dihydropyrimidin-4-yl)carbamoyl)thiophene-2-carboxylate]	–	24 µM	43 µM	–
CCCCCCCCCCCOC(=O)c1cccnc1C(=O)Nc1ccn([C@@H]2O[C@H](CO)[C@@H](O)C2(F)F)c(=O)n1 [Compound 14, Undecyl-2-((1-((2R,4R,5R)-3,3-difluoro-4-hydroxy-5-(hydroxymethyl)-tetrahydrofuran-2-yl)-2-oxo-1,2-dihydropyrimidin-4-yl)carbamoyl)nicotinate]	140 µM	35 µM	> 200 µM	–
O=c1[nH]c(=O)n(C2CCCO2)cc1F (stereo not drawn) [FT-207, Ftorafur, reference compound]	–	–	–	Mean Volume of Tumor ([4]; day 7): 756.7 mm^3; Mean Volume of Tumor ([4]; day 14): 1347.0 mm^3; Mean Volume of Tumor ([4]; day 18): 1526.3 mm^3; Mean Volume of Tumor ([4]; day 22): 1779.4 mm^3; Inhibition ratio (tumor weight) ([4]; Positive control (Ftorafur 120 mg/kg gavage)): 38.5%; Mean Weight of Nude Mice ([4]; Positive control (Ftorafur 120 mg/kg gavage), day 0): 19.3 g; Mean Weight of Nude Mice ([4]; Positive control (Ftorafur 120 mg/kg gavage), day 7): 19.5 g; Mean Weight of Nude Mice ([4]; Positive control (Ftorafur 120 mg/kg gavage), day 14): 19.8 g; Mean Weight of Nude Mice ([4]; Positive control (Ftorafur 120 mg/kg gavage), day 22): 19.7 g; Tumor Weight, Average Value ([4]; Positive control (Ftorafur 120 mg/kg gavage), end of the experiment): 1.26 g; efficacy by t-test, in words ([4]; positive control group (Ftorafur 120 mg/kg gavage)): significant efficacy
CCCCCCCCCCCCCCCCOC(=O)c1ccccc1C(=O)Nc1ccn([C@@H]2O[C@H](CO)[C@@H](O)C2(F)F)c(=O)n1 [Compound 3, Hexadecyl-2-((1-((2R,4R,5R)-3,3-difluoro-4-hydroxy-5-(hydroxymethyl)-tetrahydrofuran-2-yl)-2-oxo-1,2-dihydropyrimidin-4-yl)carbamoyl)benzoate]	–	10 µM	60 µM	–
